# Reference: US10246498B2, “Genetically encoded histone reporter allele constructs” (THE JOHNS HOPKINS UNIVERSITY, priority 2014, dated 2019)
# “Also recorded” adds a separate entry of the source.
# Columns and labels:
# [1] = tested on: H3K4 trimethylation activity in MEFs; test: H3K4me3 indicator in murine embryonic fibroblasts from Kmt2d+/βGeo and Kmt2d+/+ mice; format: cell-based, mouse; conditions: Kmt2d+/βGeo cells (MEFs)
# Text: An H3K4 trimethylation reporter was also created (FIG. 5B). This reporter is based on the H3 tail on one end and the TBP associated factor III (TAFIII) […] on the other end; the TAFIII […] only identifies and binds to trimethylated K4 on H3. When the H3K4 site gets trimethylated, the TAFIII […] can bind to the modified H3 tail and bring the two parts of the separated GFP in close proximity. The activity of the epigenetic modification system can be quantified through fluorescence.
# (§1) Epigenetic reporter alleles were synthesized (OriGene, Rockville, Md.) using published sequences for component elements (Baird et al. (1999) Proc. Natl. Acad. Sci. 96:11241-6; Souslova et al. (2007) BMC Biotechnol. 7:37). Single nucleotide mutations were created using the QuickChange Lightening kit (Agilent Technologies Inc, Santa Clara, Calif.). For H4ac indicator, K5R, K8R, K12R, K16R and K20R (MUT indicator) were introduced. For H3K4me3 indicator, K4Q and D890A/W891A and M882A (three separate constructs) were introduced. For transient transfections, mouse embryonic fibroblasts (see below) were transfected with Fugene HD (Promega, Madison, Wis.), 48 hours prior to FACS. […] For drug stimulation, drug was added to the media 24 hours prior to FACS. For stable transfections in T293 (American Type Culture Collection) cells, 10 μg/ml of Blastocidin (Life Technologies, Carlsbad, Calif.) was added to the media for several weeks. For stable transfection in MEFs, the reporter was transferred to a ViraPower Lentiviral Expression System (Life Technologies, Carlsbad, Calif.). After selection with Blastocidin, the drug of interest was added 24 hours prior to FACS. SAHA, AR-42 and MS275 were purchased from Selleck (Selleck Chemicals, Houston, Tex.). […] FACS data were analyzed using FlowJo (Tree Star Inc, Ashland, Oreg.). A plasmid expressing HDAC3 was acquired from Addgene (Cambridge, Mass., plasmid 13819) and transfected into a stable cell line carrying the H4 acetyl reporter allele.
# [2] = tested on: acetylation machinery (acetylation of H4 at K5, K8, K12, K16); test: H4 acetylation (H4ac) reporter allele, GFP fluorescence by FACS; format: cell-based; conditions: for cells easily discriminated from auto fluorescence (% positive cells), H4ac reporter: FACS
# Text: The acetyl reporter protein quantifies the activity of the acetylation machinery (acetylation of H4 specifically at the 5th, 8th, 12th and 16th Lysine's) and comprises an H4 tail on one end (the target for acetylation) and a TBP associated factor II (TAFII) bromodomain on the other end of the reporter protein (FIG. 5A). The TAFII bromodomain only recognizes and binds to the acetylated H4 tail, resulting in reconstitution of GFP structure and function (i.e. fluorescence). Therefore, the reporter protein has no fluorescence unless it is acetylated by the acetylation system of the nucleus of the cell.
# as §1
# Epigenetic reporter systems were created that monitor either H4 acetylation or H3K4 trimethylation machinery activity in an effort to determine whether there is an ongoing activity deficiency in cells from Kmt2d^+/βGeo mice (FIG. 18A). Both reporter alleles encode halves of green fluorescent protein separated by a flexible linker region (Baird et al. (1999) Proc. Natl. Acad. Sci. 96: 11241-6) with a histone tail and a histone reader at the N- and C-termini, respectively. When the histone tail corresponding to either H4 or H3 is modified by acetylation or methylation, respectively, GFP structure and function are reconstituted, as detected by a fluorescent readout (FIG. 18B). The acetyl reporter protein quantifies the activity of the acetylation machinery (acetylation of H4 specifically at sites K5, K8, K12, and K16) and comprises an H4 tail (residues 1-30) on one end and a TATA binding protein (TBP)-associated factor II (TAFII) bromodomain on the other end (FIG. 18A). The TAFII bromodomain only recognizes and binds to the acetylated H4 tail. […] For example, only 5% of cells were easily discriminated from auto fluorescence with 1 μM of SAHA, but increased to 20% with 2.5 μM of SAHA, 40% at 7.5 μM of SAHA and 45% at 10 μM of SAHA (FIG. 18D). Saturation of this response correlates well with immunoblot data using antibodies to the modified H4 tail (Munshi et al. (2006) Mol. Cancer Ther. 5:1967-74). This response is attenuated by co-transfection with a construct encoding a histone deacetylase (FIG. 20) and absent upon mutagenesis of all potential acetylation sites (FIG. 18E and FIG. 18I), attesting to its specificity. The H3K4 trimethylation reporter allele encodes the H3 tail (residues 1-40) on one end and the TBP-associated factor III (TAF3) plant homeodomain (PHD) on the other end, which binds to trimethylated K4 on H3 (FIG. 18A). […]
SMILES,H3K4 trimethylation activity [1],"cells easily discriminated from auto fluorescence (% positive cells), H4ac reporter ([2]; 1 μM SAHA) [%]","cells easily discriminated from auto fluorescence (% positive cells), H4ac reporter ([2]; 2.5 μM SAHA) [%]","cells easily discriminated from auto fluorescence (% positive cells), H4ac reporter ([2]; 7.5 μM SAHA) [%]","cells easily discriminated from auto fluorescence (% positive cells), H4ac reporter ([2]; 10 μM SAHA) [%]",acetylation of the indicator ([2]; FIG. 19A),"signal of the H4ac indicator ([2]; HEK293 cells stably expressing the indicator, attenuated by recombinant HDAC3)","fluorescence response of the acetylation indicator ([2]; increasing amounts of drug, culture systems)"
Nc1ccccc1NC(=O)c1ccc(CNC(=O)OCc2cccnc2)cc1 [MS275],enhanced; also recorded: improved,,,,,,,
"O=C(CCCCCCC(=O)Nc1ccccc1)NO [SAHA, suberoylanilide hydroxamic acid]",,5,20,40,45,increases acetylation of the indicator,increased signal,linear fluorescence response; also recorded: increasing fluorescence with increasing amounts
